For data set [1], the system named is SD-rat, beagle dog and human hepatocytes. Kind of data set: Hepatocyte incubation, remaining abundance in all species. It is filed as in vitro ADME. Conditions: 10 μM. The procedure:
(§1) Metabolite profile and metabolite identification of Compound 1 were studied in cryopreserved SD-rat, beagle dog and human hepatocytes. The incubations were conducted using 10 μM initial concentrations of test substance and sampling at 0 min, 60 min, and 120 min. The samples were analysed using UPLC/Q-TOF-MS. Incubation material and procedures are provided Table 1. The samples were thawed at room temperature (RT), centrifuged (10 min at 13000×g (Heraeus Pico 17 centrifuge), and the supernatants were pipetted to glass vials to wait for analysis. Analysis was performed using liquid chromatography-mass spectrometry (LC-MS) according to the parameters described in Table 2. The samples were thawed at room temperature (RT), centrifuged (10 min at 13000×g (Heraeus Pico 17 centrifuge), and the supernatants were pipetted to glass vials to wait for analysis.

Another data set has as its system human hepatocytes. Kind of data set: Metabolite profile in cryopreserved human hepatocytes. It is filed as in vitro ADME. The settings on record: 10 μM Compound 1, 120 min. As to the method: as §1
In another data set the test system is beagle dog hepatocytes. The experiment in a line: Metabolite profile in cryopreserved beagle dog hepatocytes. It is filed as in vitro ADME. Conditions: 10 μM Compound 1, 120 min. As to the method:
as §1

Data set [2] in a line: Metabolite identification in cross-subject human urine pool. It is filed as in vivo. The settings on record: day 7, 0-24 h pool, multiple daily oral 15 mg Compound 1, n=8.
Method: Human urine samples from the Compound 1-dosed subjects (15 mg; n=8) collected at day 7 between 0-4 h, 4 h-8 h, 8 h-12 h and 12 h-24 h after multiple daily oral administration were also pooled for analysis. Urine from placebo-dosed subjects (n=2) collected at day 7 over the same time periods was used as control for metabolite identification.
A composite urine sample (day 7; 0-24 h) was prepared for each human subject treated with Compound 1 (15 mg; n=8) or with placebo (n=2) by combining proportional amounts of the sample collected over each time period. Composite cross-subject urine samples for human subjects dosed with Compound 1 or placebo were then prepared by combining proportional amounts of pooled urine from each subject. All urine pools were mixed and centrifuged (2000 g; 4° C.; 10 min) prior to analysis.
Samples were analysed by LC-MS, utilising a Vion Q-TOF mass spectrometer (Waters), Acquity I-class LC pumps, column heater, sample manager and photodiode array detector (Waters). The mass spectrometer was set to operate in positive ion mode and a number of experiments were performed to enable the acquisition of full scan and product ion data. […] Metabolite abundance was calculated as a percentage of total drug-related material in a given sample; the MS peak areas were collated and summed, and the abundance of each metabolite calculated as a percentage of the total in each sample. Based on apparent abundance, metabolites were categorized as ‘major’ if present at 10% or more of the total drug-related material, ‘minor’ if between 1 and <10% and ‘trace’ if <1%.
The next data set deals with SD-rat hepatocytes. Kind of data set: Metabolite profile in cryopreserved SD-rat hepatocytes. It is filed as in vitro ADME. The settings on record: 10 μM Compound 1, 120 min. As to the method:
as §1

Data set [3] can be described thus: Control incubation without cells. In kind it is in vitro ADME. As to the method:
as §1

Data set [4] is described as follows: Metabolite identification in cross-subject human plasma pool. In kind it is in vivo. The settings on record: day 7, 0-24 h pool, multiple daily oral 15 mg Compound 1, n=8. The procedure: The in vivo metabolism of Compound 1 was investigated in studies using rat, dog, rabbit, and human plasma and human urine samples from toxicology studies, an embryofetal development study, and a human clinical study.
Human plasma and urine samples originated from a human clinical study with subjects aged 65 years or older, dosed with 15 mg daily and achieving steady-state before day 7. Samples were stored at −75° C. or below from collection until analysis.
Human plasma samples from each Compound 1-dosed subject (15 mg; n=8) collected at day 7 at 0.25 h, 0.5 h, 1 h, 1.5 h, 2 h, 3 h, 4 h, 6 h, 8 h, 10 h, 12 h and 24 h after multiple daily oral administration were pooled for analysis. Plasma from placebo-dosed subjects (n=2) taken at the same time-points and pre-dose plasma collected on day 1 from Compound 1-dosed subjects were used as control for metabolite identification.
Time-normalized pooled plasma samples (day 7; 0-24 h) were prepared for each human subject treated with Compound 1 (15 mg; n=8) or with placebo (n=2) (see e.g., Hamilton et al, Clin. Pharmacol. Ther. 1983, 29(3):408-13). Composite time-normalized pooled plasma samples for human subjects dosed with Compound 1 or placebo were then prepared by combining an equal volume from the pooled sample prepared for each subject. A composite control plasma sample was prepared by combining an equal volume of pre-dose plasma from human subjects treated with Compound 1 (n=8).
Aliquots (100 μL) of the pooled plasma samples prepared for metabolite identification were treated with ice-cold acetonitrile (500 μL), mixed and centrifuged (2000 g; 4° C.; 10 min). […]
Samples were analysed by LC-MS, utilising a Vion Q-TOF mass spectrometer (Waters), Acquity I-class LC pumps, column heater, sample manager and photodiode array detector (Waters). […] Metabolite abundance was calculated as a percentage of total drug-related material in a given sample; the MS peak areas were collated and summed, and the abundance of each metabolite calculated as a percentage of the total in each sample. […]

On to `CCOC(=O)N1CC[C@]2(C1)C[C@@H](N1CCC(c3ccnn3C)CC1)C2` [Compound 1, cis ethyl 2-[4-(1-methyl-1H-pyrazol-5-yl)piperidin-1-yl]-6-azaspiro[3.4]octane-6-carboxylate], for which the “remaining abundances after 120 min incubation period” value in data set [1] is 79-93%. Moreover, in the data set with human hepatocytes, the “Metabolite profile, Human 120 min, %” value was 84.0%. Also, in the data set on beagle dog hepatocytes, the “Metabolite profile, Dog 120 min, %” value was 94.9%. In addition, the “% Abundance in Sample, Urine (% of total drug-related material)” value (“% Abundance in Sample, Urine” for short) in data set [2] was determined as 63.3%. For the same molecule, in the data set with SD-rat hepatocytes, the “Metabolite profile, Rat 120 min, %” value came out at 93.7%. Further, in data set [3] (incubation without cells, 10 μM, 120 min), the “Metabolite profile, No cells 120 min, %” value amounted to 100%. Also, the “disappearance in the control incubation without cells” value in data set [3] (without cells) is recorded as “Practically no disappearance”. Moreover, in data set [4], the “% Abundance in Sample, Plasma (% of total drug-related material)” value (shortened to “% Abundance in Sample, Plasma”) is 82.0%.
Regarding `Cn1nccc1C1CCN([C@H]2C[C@]3(CCNC3)C2)CC1` [Compound M4], the “Metabolite profile, Human 120 min, %” value in the data set with human hepatocytes is 13.8%. Further, the “Metabolite profile, Dog 120 min, %” value with beagle dog hepatocytes turned out to be 4.6%. For the same molecule, the “% Abundance in Sample, Urine” value in data set [2] worked out at 26.4%. In the data set with SD-rat hepatocytes, the “Metabolite profile, Rat 120 min, %” value came to 4.9%. Moreover, in data set [4], the “% Abundance in Sample, Plasma” value was 11.4%.
For the molecule `CCOC(=O)N1CC[C@]2(C1)C[C@@H](N1CCC(c3ccn[nH]3)CC1)C2` [Compound M2], the “Metabolite profile, Human 120 min, %” value in the data set with human hepatocytes was found to be 0.3%. In data set [2], the “% Abundance in Sample, Urine” value is 3.3%. The “Metabolite profile, Rat 120 min, %” value with SD-rat hepatocytes amounted to 0.1%. Further, the “% Abundance in Sample, Plasma” value in data set [4] is 2.3%.

These data come from patent US20260226027A1, “DEUTERATED COMPOUNDS” (Neurocrine Biosciences, Inc., priority 2023, published 2026).
